Experimental data as given in PubChem BioAssay (NCI).
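These data come from cells grown in 96-well plates and exposed to compound for 48 hours at five concentrations. TGI: total growth inhibition.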

Assays:
Experiment in all cases: DTP human tumour cell line panel, 48 h
CAKI-1 renal = system: CAKI-1 renal
PC-3 prostate = system: PC-3 prostate
A549 NSCLC = system: A549 NSCLC
HS 578T breast = system: HS 578T breast
HT29 colon = system: HT29 colon
COLO 205 colon = system: COLO 205 colon
SNB-75 CNS = system: SNB-75 CNS
SW-620 colon = system: SW-620 colon
MCF7 breast = system: MCF7 breast
SF-295 CNS = system: SF-295 CNS
HCT-15 colon = system: HCT-15 colon
OVCAR-8 ovarian = system: OVCAR-8 ovarian
BT-549 breast = system: BT-549 breast
M14 melanoma = system: M14 melanoma
HCT-116 colon = system: HCT-116 colon
ACHN renal = system: ACHN renal
MDA-N = system: MDA-N
UO-31 renal = system: UO-31 renal
NCI/ADR-RES ovarian = system: NCI/ADR-RES ovarian
HOP-92 NSCLC = system: HOP-92 NSCLC
SNB-19 CNS = system: SNB-19 CNS
HL-60(TB) leukemia = system: HL-60(TB) leukemia
DU-145 prostate = system: DU-145 prostate
OVCAR-5 ovarian = system: OVCAR-5 ovarian
RXF 393 renal = system: RXF 393 renal
KM12 colon = system: KM12 colon
T-47D breast = system: T-47D breast
SF-268 CNS = system: SF-268 CNS
OVCAR-3 ovarian = system: OVCAR-3 ovarian
NCI-H522 lung = system: NCI-H522 lung
786-0 renal = system: 786-0 renal
TK-10 renal = system: TK-10 renal
SK-OV-3 ovarian = system: SK-OV-3 ovarian
UACC-257 melanoma = system: UACC-257 melanoma
A498 renal = system: A498 renal
SK-MEL-5 melanoma = system: SK-MEL-5 melanoma
OVCAR-4 ovarian = system: OVCAR-4 ovarian
MDA-MB-435 = system: MDA-MB-435
MOLT-4 leukemia = system: MOLT-4 leukemia
NCI-H460 lung = system: NCI-H460 lung
HOP-62 NSCLC = system: HOP-62 NSCLC
NCI-H23 lung = system: NCI-H23 lung
EKVX NSCLC = system: EKVX NSCLC
U251 CNS = system: U251 CNS
RPMI-8226 leukemia = system: RPMI-8226 leukemia
LOX IMVI melanoma = system: LOX IMVI melanoma
CCRF-CEM leukemia = system: CCRF-CEM leukemia
IGROV1 ovarian = system: IGROV1 ovarian
K-562 leukemia = system: K-562 leukemia
SF-539 CNS = system: SF-539 CNS
SK-MEL-2 melanoma = system: SK-MEL-2 melanoma
SK-MEL-28 melanoma = system: SK-MEL-28 melanoma
NCI-H226 lung = system: NCI-H226 lung
SR leukemia = system: SR leukemia
UACC-62 melanoma = system: UACC-62 melanoma
SN12C renal = system: SN12C renal
MDA-MB-231 breast = system: MDA-MB-231 breast
HCC-2998 colon = system: HCC-2998 colon
MALME-3M melanoma = system: MALME-3M melanoma

O=NC1c2cccc3cccc(c23)C1N=O (stereo not drawn)
TGI (CAKI-1 renal): 10.8 µM
TGI (PC-3 prostate): 25.4 µM
TGI (A549 NSCLC): 17 µM
TGI (HS 578T breast): 75.7 µM
TGI (HT29 colon): 23.7 µM
TGI (COLO 205 colon): 17.2 µM
TGI (SNB-75 CNS): 31.3 µM
TGI (SW-620 colon): 12.7 µM
TGI (MCF7 breast): 25.8 µM
TGI (SF-295 CNS): 24.8 µM
TGI (HCT-15 colon): 5.02 µM
TGI (OVCAR-8 ovarian): 6.65 µM
TGI (BT-549 breast): 15.6 µM
TGI (M14 melanoma): 27.3 µM
TGI (HCT-116 colon): 3.81 µM
TGI (ACHN renal): 3.9 µM
TGI (MDA-N): 25.4 µM
TGI (UO-31 renal): 11.7 µM
TGI (NCI/ADR-RES ovarian): 7.21 µM
TGI (HOP-92 NSCLC): 24.5 µM
TGI (SNB-19 CNS): 43.4 µM
TGI (HL-60(TB) leukemia): 6.61 µM
TGI (DU-145 prostate): > 100 µM
TGI (OVCAR-5 ovarian): 9.11 µM
TGI (RXF 393 renal): 14.1 µM
TGI (KM12 colon): 17 µM
TGI (T-47D breast): > 100 µM
TGI (SF-268 CNS): 26.3 µM
TGI (OVCAR-3 ovarian): 9.6 µM
TGI (NCI-H522 lung): 9.14 µM
TGI (786-0 renal): 30.5 µM
TGI (TK-10 renal): 37.1 µM
TGI (SK-OV-3 ovarian): 43.7 µM
TGI (UACC-257 melanoma): 27.5 µM
TGI (A498 renal): 35.8 µM
TGI (SK-MEL-5 melanoma): 30.7 µM
TGI (OVCAR-4 ovarian): 3.56 µM
TGI (MDA-MB-435): 25.7 µM
TGI (MOLT-4 leukemia): > 100 µM
TGI (NCI-H460 lung): 17.5 µM
TGI (HOP-62 NSCLC): 19.5 µM
TGI (NCI-H23 lung): 32.3 µM
TGI (EKVX NSCLC): 6.76 µM
TGI (U251 CNS): 28.1 µM
TGI (RPMI-8226 leukemia): 39.9 µM
TGI (LOX IMVI melanoma): 5.6 µM
TGI (CCRF-CEM leukemia): 4.25 µM
TGI (IGROV1 ovarian): 3.19 µM
TGI (K-562 leukemia): 11.7 µM
TGI (SF-539 CNS): 26.6 µM

CCN(CC)CCO/N=C1\CC[C@H]2[C@@H]3CC=C4C[C@@H](O)CC[C@]4(C)[C@H]3CC[C@]12C
TGI (CAKI-1 renal): 30 µM
TGI (SK-MEL-2 melanoma): 48.4 µM
TGI (PC-3 prostate): 50.2 µM
TGI (HS 578T breast): > 100 µM
TGI (SK-MEL-28 melanoma): 31.1 µM
TGI (NCI-H226 lung): 33.1 µM
TGI (HT29 colon): 22.5 µM
TGI (COLO 205 colon): 26.1 µM
TGI (SNB-75 CNS): 91.1 µM
TGI (SW-620 colon): 30.4 µM
TGI (SR leukemia): 26.4 µM
TGI (MCF7 breast): 31.6 µM
TGI (SF-295 CNS): 38.6 µM
TGI (HCT-15 colon): 28.5 µM
TGI (OVCAR-8 ovarian): 64.6 µM
TGI (BT-549 breast): 44.4 µM
TGI (UACC-62 melanoma): 31.1 µM
TGI (HCT-116 colon): 30.2 µM
TGI (ACHN renal): > 100 µM
TGI (MDA-N): 58.1 µM
TGI (UO-31 renal): 32.1 µM
TGI (SN12C renal): > 100 µM
TGI (NCI/ADR-RES ovarian): > 100 µM
TGI (SNB-19 CNS): 98.5 µM
TGI (MDA-MB-231 breast): 41.2 µM
TGI (HL-60(TB) leukemia): 44.5 µM
TGI (DU-145 prostate): 65.7 µM
TGI (OVCAR-5 ovarian): > 100 µM
TGI (RXF 393 renal): 34.1 µM
TGI (HCC-2998 colon): 31.7 µM
TGI (KM12 colon): 38.5 µM
TGI (SF-268 CNS): > 100 µM
TGI (OVCAR-3 ovarian): 43.8 µM
TGI (NCI-H522 lung): 34 µM
TGI (786-0 renal): 31.5 µM
TGI (TK-10 renal): 96.1 µM
TGI (MALME-3M melanoma): 29.7 µM
TGI (UACC-257 melanoma): 30.4 µM
TGI (A498 renal): 35.9 µM
TGI (SK-MEL-5 melanoma): 25.4 µM
TGI (OVCAR-4 ovarian): 71.1 µM
TGI (MDA-MB-435): 31.9 µM
TGI (MOLT-4 leukemia): 40.4 µM
TGI (NCI-H460 lung): 29.8 µM
TGI (HOP-62 NSCLC): 35.2 µM
TGI (NCI-H23 lung): 33.4 µM
TGI (EKVX NSCLC): > 100 µM
TGI (U251 CNS): 35.9 µM
TGI (RPMI-8226 leukemia): 47.6 µM
TGI (LOX IMVI melanoma): 31.1 µM
TGI (IGROV1 ovarian): > 100 µM
TGI (K-562 leukemia): 30.7 µM
TGI (SF-539 CNS): 27.6 µM
